Target: T1, human GnRH receptor (Homo sapiens, UniProt P30968)
T1 construct: expressed in transfected cells; host or cells: COS-1 cells infected with recombinant adenovirus; membrane preparation
T1 sequence (P30968 1-328): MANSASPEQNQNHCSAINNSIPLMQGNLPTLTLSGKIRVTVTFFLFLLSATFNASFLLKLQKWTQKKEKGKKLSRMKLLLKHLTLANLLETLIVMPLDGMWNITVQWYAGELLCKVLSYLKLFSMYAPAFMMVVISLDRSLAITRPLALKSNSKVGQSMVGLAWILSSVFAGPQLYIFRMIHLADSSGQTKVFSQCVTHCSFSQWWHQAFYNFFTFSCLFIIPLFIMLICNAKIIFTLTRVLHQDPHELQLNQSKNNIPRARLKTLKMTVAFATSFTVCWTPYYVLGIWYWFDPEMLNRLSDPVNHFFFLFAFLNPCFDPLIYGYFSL
Experiment: GnRH radioligand binding assay
Conditions: 125I-LHRH-D-Trp6 radioligand; COS-1 cell membranes containing human GnRH receptors; 2 h at 4 C
Experimental: COS-1 cells infected with a recombinant adenovirus directing the expression of the human GnRH receptor were harvested 48 hours after virus infection using cell dissociation buffer from Gibco-BRL and pelleted by centrifugation (5 min., 1100 rpm in RC3B, […]). The pellet was suspended in 20 ml ice cold binding buffer (25 mM Tris HCl, pH 7.4, 0.1% sodium azide, 0.1% BSA) and homogenized using polytron (Tempest Virtishear, Virtis).
The homogenate was centrifuged for 12 min. at 14,500 rpm in a RC5B and the supernatant discarded. The pellet was re-homogenized in 20 ml of binding buffer and centrifuged. The final pellet was resuspended in a small volume of binding buffer such that the final protein concentration was approximately 1.5 mg/ml (according to Pierce-BCA Protein kit). Aliquots of membrane preparation could then be stored frozen at −70 C without significant loss of binding activity for future use.
Samples were diluted in binding buffer (25 mM Tris pH 7.5, 10 MM MgCl2, 0.01% NaN3, 0.1% BSA) for the assay. The radioligand used was ^125I-LHRH-D-TrP6, approximately 50-70,000 counts/25 μl Non-specific binding was determined using LHRH-D-TrP6 at a final concentration of 1 µM. Addition of GnRH membranes to the assay was optimized to give a signal-to-noise ratio of 10:1.
Twenty-five μl sample (4× final concentration), 50 μl membranes and 25 μl radioligand were incubated in a V-bottom 96-well plate with shaking for 2 h at 4 C. The incubated mixture was then filtered onto a Whatman GF/B membrane pre-treated with 0.1% poly(ethylene imine) using a Packard Cell Harvester. The filter was dried for approximately 10 min. at 37 C. Forty μl Microscint 20 was added and the radioactivity remaining on the filter was counted using a Topcount γ-counter.
Binding inhibition was calculated from the measured values using a concentration series of each test compound in the conventional manner.

Row | SMILES | IC50 [nM]
1 | CCOc1cc(CN2C[C@@H]3C[C@@H](c4ccc(N(C)C)c5ccccc45)N4C(=O)N(CCN5CCOCC5)C(=O)[C@@]34C2)ccc1O (relative stereo) [AF20660] | 800 ± 110
2 | COc1ccc(CN2C[C@@H]3C[C@@H](c4ccc(N(C)C)c5ccccc45)N4C(=O)N(CCN5CCOCC5)C(=O)[C@@]34C2)cc1O (relative stereo) [AF21276] | 35 ± 6
3 | COc1cc(CN2C[C@@H]3C[C@@H](c4ccc(N(C)C)c5ccccc45)N4C(=O)N(CCN5CCOCC5)C(=O)[C@@]34C2)c(Br)c(Br)c1O (relative stereo) [AF21278] | 280 ± 170
4 | COc1ccc(CN2C[C@@H]3C[C@@H](c4ccc(OC)c5ccccc45)N4C(=O)N(CCN5CCOCC5)C(=O)[C@@]34C2)cc1O (relative stereo) [AF21477] | ~612
5 | COc1ccc(CN2C[C@@H]3C[C@@H](c4ccc(N(C)C)cc4)N4C(=O)N(CCN5CCOCC5)C(=O)[C@@]34C2)cc1O (relative stereo) [AF21479] | ~160
6 | COc1cc(Br)c(CN2C[C@@H]3C[C@@H](c4ccc(N(C)C)c5ccccc45)N4C(=O)N(CCN5CCOCC5)C(=O)[C@@]34C2)cc1O (relative stereo) [AF21813] | ~80
7 | COc1ccc(CN2C[C@@H]3C[C@@H](c4ccc(N(C)C)c5ccccc45)N4C(=O)N(CCc5ccncc5)C(=O)[C@@]34C2)cc1O (relative stereo) [AF22053] | ~385
8 | COc1ccc(CN2C[C@@H]3C[C@@H](c4ccc(N(C)C)c5ccccc45)N4C(=O)N(CCN5CCNCC5)C(=O)[C@@]34C2)cc1O (relative stereo) [AF22352] | ~1500
9 | COc1ccc(CN2C[C@H]3C[C@H](c4ccc(N)c5ccccc45)N4C(=O)N(CCN5CCOCC5)C(=O)[C@]34C2)cc1O (relative stereo) [Compound 17, (trans)-5-[4-amino-1-naphthyl]-8-(3-hydroxy-4-methoxybenzyl)-2-(2-morpholin-4-ylethyl)hexahydro-1H-pyrrolo[3′,4′:2,3]pyrrolo[1,2-c]imidazole-1,3(2H)-dione] | ~321
10 | COc1ccc(CN2C[C@H]3C[C@H](c4ccc(N(C)C)c5ccccc45)N4C(=O)N(CCN5CCOCC5)C(=O)[C@]34C2)cc1NC(C)=O (relative stereo) [Compound 36, N-{5-[((trans)-5-[4-(dimethylamino)-1-naphthyl]-2-(2-morpholin-4-ylethyl)-1,3-dioxohexahydro-1H-pyrrolo[3′,4′:2,3]pyrrolo[1,2-c]imidazol-8(9H)-yl)methyl]-2-methoxyphenyl}acetamide] | ~21
11 | COc1ccc(CN2C[C@H]3C[C@H](c4ccnc5ccccc45)N4C(=O)N(CCN5CCOCC5)C(=O)[C@]34C2)cc1O (relative stereo) [Compound 73, (trans)-8-(3-hydroxy-4-methoxybenzyl)-2-(2-morpholin-4-ylethyl)-5-quinolin-4-ylhexahydro-1H-pyrrolo [3′, 4′:2,3]pyrrolo[1,2-c]imidazole-1,3(2H)-dione] | ~1500
12 | O=C1N(CCN2CCOCC2)C(=O)[C@]23CNC[C@H]2C[C@H](c2cnc4ccccc4c2)N13 (relative stereo) [Compound 76, (trans)-2-(2-morpholin-4-ylethyl)-5-quinolin-3-ylhexahydro-1H-pyrrolo [3′,4′:2,3] pyrrolo [1,2-c]imidazole-1,3(2H)-dione] | ~270

— US20020065309A1, “Novel Bicyclic and tricyclic pyrrolidine derivatives as GnRH antagonists” (priority 1999, published 2002)
